According to patent US10870832B2, “Use of small molecules to enhance MAFA expression in pancreatic endocrine cells” (Janssen Biotech, Inc., priority 2014, dated 2020):

Assays:
Assay type in all cases: cell-based, human
MAFA expression [1] = assay: Small molecule screen at Stage 6 or 7, real-time PCR (Example 2); settings: added at Stage 7, 1 μM, H1-derived cells at air-liquid interface
Experimental: Cells of the human embryonic stem cell line H1 (WA01) at passage 42 were seeded as single cells at 1×10^5 cells/cm^2 on MATRIGEL™ (1:30 dilution)-coated dishes in a media comprising of DMEM-F12, GlutaMAX™ (1:100 dilution), 0.25 mM ascorbic acid, 100 ng/ml of FGF2 (R & D systems, MN), 1 ng/ml of TGF-β, ITS-X (1:100 dilution), 2% FAF-BSA, and 20 ng/ml of IGF-1, supplemented with 10 μM of Y-27632. Forty-eight hours post-seeding, the cultures were washed in incomplete PBS (phosphate buffered saline without Mg or Ca) followed by incubation with 1× TrypLE™ Express Enzyme (Life Science; Catalog No. 14190) for 3 to 5 minutes at 37° C. The released cells were rinsed with DMEM-F12 and spun at 1000 rpm for 5 minutes. The resulting cell pellet was resuspended in DMEM-F12 supplemented with 10 μM Y-27632, 1× GlutaMAX™, 0.25 mM ascorbic acid, 100 ng/ml FGF2, 1 ng/ml TGF-β, ITS-X at a 1:100 dilution, 2% FAF-BSA and 20 ng/ml of IGF-1 and the single cell suspension was seeded at approximately 1.3 to 1.5×10^5 cells/cm^2. The cultures were fed every day with medium and differentiation, according to the following protocol, was initiated 48 hours following seeding resulting in an about 90% starting confluency. […]
At Stages 6 or 7, various small molecules were added and their effect was evaluated by real-time PCR.

MAFA expression [2] = assay: Stage 7 treatment, real-time PCR of MAFA (Example 6); settings: Stage 7, day 7, 2 μM in Stage 7 medium, H1-derived cells, mRNA
Experimental: (§1) Cells of the human embryonic stem cell line H1 (WA01) were seeded as single cells at 1×10^5 cells/cm^2 on MATRIGEL™ (1:30 dilution) coated dishes in E8 media. At about 70 to 80% confluency, the cultures were washed in 1× incomplete DPBS followed by incubation with 1× TrypLET™ Express Enzyme for 3 to 5 minutes at 37° C. The released cells were rinsed with E8 and spun at 1000 rpm for 5 minutes. The resulting cell pellet was resuspended in E8 supplemented with 10 μM Y-27632 and the single cell suspension was seeded at approximately 1.3 to 1.5×10^5 cells/cm^2. The cultures were fed every day with E8 medium and differentiation, according to the following protocol, was initiated 48 hrs. following seeding resulting in an about 90% starting confluency.
(§2) Stage 6 cells were cultured for seven days in BLAR medium supplemented with a 1:100 dilution of ITS-X; 20 mM glucose (final); 1.5 g/L sodium bicarbonate; 2% FAF-BSA; 10 μg/ml of heparin, 10 μM ZnSO4, 1 μM T3 as 3,3′, 5-triiodo-L-thyronine sodium salt, 10 μM ALK5 inhibitor II, 1 mM N-acetyl cysteine. […]
(§3) At Stage 7, day 7, mRNA was collected and expression of MAFA, UCN3, PDX1, NKX6.1, insulin and G6PC2 evaluated as compared to undifferentiated human stem cells. […]

UCN3 expression = assay: Stage 7 treatment, real-time PCR of UCN3 (Example 6); settings: Stage 7, day 7, 2 μM in Stage 7 medium, H1-derived cells, mRNA
Experimental: as §1, §2, §3

Nc1nc(Nc2ccc3c(c2)CC[C@@H](N2CCCC2)CC3)nn1-c1cc2c(nn1)-c1ccccc1CCC2 [R428, 1H-1,2,4-Triazole-3,5-diamine, 1-(6,7-dihydro-5H-benzo[6,7]cyclohepta[1,2-c]pyridazin-3-yl) N3-[(7S)-6,7,8,9-tetrahydro-7-(1-pyrrolidinyl)-5H-benzocyclohepten-2-yl]-]
expression of MAFA as compared to untreated cultures (MAFA expression [1]): significantly upregulated | MAFA expression (MAFA expression [2]): increases MAFA expression | UCN3 expression (UCN3 expression): reduces other beta cell maturation markers
